Literature values in patent US12194002B2, “Compositions and methods to improve the therapeutic benefit of suboptimally administered chemical compounds including substituted hexitols such as dibromodulcitol” (priority 2011, dated 2025).

Experiments:
[1] = molecular target: JAK2V617F mutant of the JAK2 tyrosine kinase (Homo sapiens, UniProt O60674, V617F)
Chain of JAK2V617F mutant of the JAK2 tyrosine kinase (O60674 whole entry V617F): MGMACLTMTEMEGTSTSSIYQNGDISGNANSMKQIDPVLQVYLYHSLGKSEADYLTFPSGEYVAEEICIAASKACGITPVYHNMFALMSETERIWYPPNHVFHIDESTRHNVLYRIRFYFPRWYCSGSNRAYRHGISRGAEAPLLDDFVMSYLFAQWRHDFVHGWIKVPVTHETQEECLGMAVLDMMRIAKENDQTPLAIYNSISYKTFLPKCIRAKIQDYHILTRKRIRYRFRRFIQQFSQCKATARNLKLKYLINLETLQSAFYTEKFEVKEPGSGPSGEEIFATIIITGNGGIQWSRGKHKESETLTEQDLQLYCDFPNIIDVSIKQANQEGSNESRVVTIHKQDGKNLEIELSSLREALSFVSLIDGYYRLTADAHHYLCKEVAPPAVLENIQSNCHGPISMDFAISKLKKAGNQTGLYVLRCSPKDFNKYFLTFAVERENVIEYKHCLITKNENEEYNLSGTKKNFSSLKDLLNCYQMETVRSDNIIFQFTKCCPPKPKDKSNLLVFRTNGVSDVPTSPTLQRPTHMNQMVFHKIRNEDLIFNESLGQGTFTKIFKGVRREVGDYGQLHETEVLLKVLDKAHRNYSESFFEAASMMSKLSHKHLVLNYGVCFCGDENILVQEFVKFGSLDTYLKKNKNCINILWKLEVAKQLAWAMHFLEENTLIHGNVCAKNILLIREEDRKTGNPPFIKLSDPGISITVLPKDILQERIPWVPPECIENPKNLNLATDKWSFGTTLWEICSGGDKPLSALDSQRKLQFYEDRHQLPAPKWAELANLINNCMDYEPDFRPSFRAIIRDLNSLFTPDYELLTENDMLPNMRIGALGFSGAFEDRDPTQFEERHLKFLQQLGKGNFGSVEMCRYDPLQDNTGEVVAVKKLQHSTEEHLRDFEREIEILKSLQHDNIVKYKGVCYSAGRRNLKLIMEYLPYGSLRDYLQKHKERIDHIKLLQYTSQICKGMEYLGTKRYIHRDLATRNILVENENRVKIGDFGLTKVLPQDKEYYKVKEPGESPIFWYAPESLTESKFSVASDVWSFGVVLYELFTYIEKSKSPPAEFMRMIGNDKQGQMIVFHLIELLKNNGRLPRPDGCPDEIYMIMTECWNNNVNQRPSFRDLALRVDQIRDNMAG

Inhibition of JAK2V617F mutant [1] | Absorption by the oral route | Structure (SMILES)
potent inhibitor |  | C#Cc1cccc(Nc2ncnc3cc(OCCOC)c(OCCOC)cc23)c1 [Tarceva, N-(3-ethynylphenyl)-6,7-bis(2-methoxyethoxy)quinazolin-4-amine]
 | rapid and fairly complete | O[C@H]([C@H](O)[C@@H](O)CBr)[C@H](O)CBr [dibromodulcitol]
